# Source: patent US9180139B2, “Regulator, pharmaceutical composition encompassing the regulator and application thereof” (NATIONAL CHENG KUNG UNIVERSITY, priority 2012, dated 2015)
# Experiments:
# [1] = system: β3 integrin; assay: Expression of β3 integrin after shRNA transfection; assay type: cell-based, human; conditions: TSGH8301 and TSGH8301/EMP2-2 cell lines
# Excerpt: (§1) These two cell lines were transfected with small hairpin RNAs (shRNA) against αV and β3 integrins, respectively. In brief, TSGH8301 and TSGH8301/EMP2-2 cell lines were transfected with shRNAs of A1 or C1 against β3 integrin, shRNAs of H1 or G1 against αV integrin. The mRNA of EMP2 and TBP of these transfected cell lines were harvested for quantification by real-time PCR. The sequences of shRNAs of A1 (SEQ ID NO. 1), C1 (SEQ ID NO. 2), H1 (SEQ ID NO. 3) and G1 (SEQ ID NO. 4) are 5′-[…] CATAATGTTTTT-3′, 5′-[…] AACAGGGTTTTT-3′, 5′-[…] GTAAGGCTTTTTG-3′ and 5′-[…] TCCCTCGTTTTTG-3′, respectively. After transfections of shRNAs of A1, C1, H1 and G1, expressions of αV and β3 integrins in TSGH8301 and TSGH8301/EMP2-2 cell lines were repressed correspondingly. Besides, mRNA expression of EMP2 and TBP in TSGH8301 and TSGH8301/EMP2-2 cell lines without transfection was taken as controls (Ctl).
# [2] = system: αV integrin; assay: Expression of αV integrin after shRNA transfection; assay type: cell-based, human; conditions: TSGH8301 and TSGH8301/EMP2-2 cell lines
# Excerpt: as §1
# [3] = system: EMP2 mRNA expression of TSGH8301 human bladder cancer cell line; assay: Relative quantification of EMP2 mRNA expression in TSGH8301 cells incubated with genistein; assay type: cell-based
# Protocol: TSGH8301 cell lines were initially incubated with mediums containing 2 μM, 5 μM and 10 μM of genistein, respectively, and the respective EMP2 mRNA expressions was measured at sixth day, wherein mRNA expressions of housekeeping gene was taken as the baseline control.
# TSGH8301 cells were initially incubated with medium containing 15 μM of genistein and EMP2 mRNA expressions were measured at second, fourth and sixth days, respectively, wherein mRNA expressions of housekeeping gene of TSGH8301 cell lines were taken as the baseline control. With increase of incubating durations, EMP2 mRNA expression of TSGH8301 cells incubated with genistein was increased as shown in FIG. 3.
# [4] = system: EMP2 mRNA expression of RT4 bladder cancer cell line; assay: Northern blotting of EMP2 mRNA expression in RT4 cells treated with genistein; assay type: cell-based; conditions: genistein 10 μg/mL, 24 hours, normalized to β-actin
# Protocol: FIG. 1A is a northern blotting figure showing the respective EMP2 mRNA expressions of RT4 bladder cancer cell line treated with genistein (10 μg/mL) for 24 hours (Isoflavone treatment group) or not (Control group).
# Please refer to FIG. 1A which is a northern blotting figure. […] That is, genistein, the isoflavone compound, can up-regulate the EMP2 mRNA expression of RT4 cells.
Compound,expression of β3 integrin after shRNA transfection [1],expression of αV integrin after shRNA transfection [2],further results
"C1: shRNA against β3 integrin, 5′-CCGGCCCTGTTACAATATGAAGAATCTCGAGATTCTTCATATTGT AACAGGGTTTTT-3′ (CCGGCCCTGTTACAATATGAAGAATCTCGAGATTCTTCATATTGTAACAGGGTTTTT)",repressed,–,–
"A1: shRNA against β3 integrin, 5′-CCGGCATTATGTTTACAGAGGACAACTCGAGTTGTCCTCTGTAAA CATAATGTTTTT-3′ (CCGGCATTATGTTTACAGAGGACAACTCGAGTTGTCCTCTGTAAACATAATGTTTTT)",repressed,–,–
"G1: shRNA against αV integrin, 5′-CCGGCGAGGGAAGTTACTTCGGATTCTCGAGAATCCGAAGTAACT TCCCTCGTTTTTG-3′ (CCGGCGAGGGAAGTTACTTCGGATTCTCGAGAATCCGAAGTAACTTCCCTCGTTTTTG)",–,repressed,–
O=c1c(-c2ccc(O)cc2)coc2cc(O)cc(O)c12 [genistein],–,–,"EMP2 mRNA expression, dependence on genistein concentration ([3]; 2 μM, 5 μM and 10 μM genistein, measured at sixth day, P=0.03 two way ANOVA): dose-dependent up-regulation; EMP2 mRNA expression, dependence on incubating duration ([3]; 15 μM genistein, measured at second, fourth and sixth days, P=0.03 one way ANOVA): time-dependent up-regulation; EMP2 mRNA expression compared with Control group (defined as 1) [4]: up to 3.5 times"
"H1: shRNA against αV integrin, 5′-CCGGGCCTTACAAATACAACAACAACTCGAGTTGTTGTTGTATTT GTAAGGCTTTTTG-3′ (CCGGGCCTTACAAATACAACAACAACTCGAGTTGTTGTTGTATTTGTAAGGCTTTTTG)",–,repressed,–
